Source: PubChem BioAssay (NCI)
“And” between values parts separate entries of the source, which are not always exact repeats. Equal values may be shown once.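 Method: 48-hour compound exposure of cells in 96-well plates, five concentrations, linear interpolation of endpoints. At the GI50, growth is halved. At the TGI there is no net growth.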

What was measured:
Test in all cases: NCI tumour cell line growth inhibition, 48 h
SK-MEL-5 melanoma = system: SK-MEL-5 melanoma
CCRF-CEM leukemia = system: CCRF-CEM leukemia
CAKI-1 renal = system: CAKI-1 renal
SNB-75 CNS = system: SNB-75 CNS
NCI-H226 lung = system: NCI-H226 lung
SNB-19 CNS = system: SNB-19 CNS
RPMI-8226 leukemia = system: RPMI-8226 leukemia
DMS 114 small cell lung = system: DMS 114 small cell lung
KM20L2 colon = system: KM20L2 colon
DLD-1 colon = system: DLD-1 colon
XF 498 CNS = system: XF 498 CNS
DMS 273 small cell lung = system: DMS 273 small cell lung
M19-MEL melanoma = system: M19-MEL melanoma
HOP-18 NSCLC = system: HOP-18 NSCLC
SNB-78 CNS = system: SNB-78 CNS

Structure (SMILES) | TGI (SK-MEL-5 melanoma) | TGI (CCRF-CEM leukemia) | TGI (CAKI-1 renal) | TGI (SNB-75 CNS) | TGI (NCI-H226 lung) | TGI (SNB-19 CNS) | TGI (RPMI-8226 leukemia) | TGI (DMS 114 small cell lung) | TGI (KM20L2 colon) | TGI (DLD-1 colon) | TGI (XF 498 CNS) | TGI (DMS 273 small cell lung) | TGI (M19-MEL melanoma) | TGI (HOP-18 NSCLC) | TGI (SNB-78 CNS) | GI50 (RPMI-8226 leukemia)
CC(=O)OC1[C@H](OC(C)=O)C2=C(C)[C@@H](OC(C)=O)C[C@@]2(C(C)(C)O)[C@@H](OC(C)=O)[C@H]2[C@@]1(C)[C@@H](OC(C)=O)CC(OC(C)=O)[C@]21CO1 (some centres undefined) | > 100 µM | > 100 µM | > 100 µM | > 100 µM | > 100 µM | > 100 µM | > 100 µM | – | – | – | – | – | – | – | – | –
Cc1cc(S(=O)(=O)Nc2n[nH]c(N)n2)c(Cl)cc1Cl | > 10 µM | > 10 µM | > 10 µM | > 10 µM | > 10 µM | > 10 µM | > 10 µM | – | – | – | – | – | – | – | – | –
O=C(Nc1ccc(S(=O)(=O)/N=c2\ncccn2C(=O)C(C(F)(F)F)C(F)(F)F)cc1)C(C(F)(F)F)C(F)(F)F | > 100 µM | > 100 µM | 0.242 µM | > 100 µM | > 100 µM | > 100 µM | > 100 µM | – | – | – | – | – | – | – | – | –
COc1cc(C(C)O)c[n+](CCC2CNc3ccccc32)c1 (centres undefined) | > 100 µM | > 100 µM | > 100 µM | > 100 µM | > 100 µM | > 100 µM | > 100 µM | > 100 µM | > 100 µM | > 100 µM | > 100 µM | > 100 µM | > 100 µM | – | – | –
Clc1ccc(C[P+](c2ccccc2)(c2ccccc2)c2ccccc2)cc1Cl | 2.78 µM | 28.3 µM | 11 µM | 5.1 µM | 13.1 µM | 10.6 µM | – | 5.95 µM | 13.7 µM | 21.5 µM | 3.24 µM | 7.58 µM | 5.32 µM | 11 µM | 42.8 µM | –
CC1(C)COC2=C(C1)C(=O)c1ccccc1C2=O | 1.88 µM | 5.77 µM | 3.9 µM | 3.04 µM | 4.8 µM | 3.82 µM | 4.45 µM | – | – | – | – | – | – | – | – | –
O=C(NO)NCCCl | > 100 µM | > 100 µM | > 100 µM | > 100 µM | > 100 µM | > 100 µM | > 100 µM | – | – | – | – | – | – | – | – | –
Cc1ccc(C2(c3ccc(F)cc3)OC(=O)c3ccccc32)c(O)c1 (centres undefined) | 33.8 µM | 94.2 µM | 24.9 µM | 31.6 µM | 76.2 µM | 38.1 µM | 59.8 µM | – | – | – | – | – | – | – | – | –
O=C(/C(=C\I)c1ccccc1)c1ccccc1 | 31.3 µM | 54 µM | 3.07 µM | > 39.5 µM | 53.5 µM | 23.1 µM | > 21.2 µM | – | – | – | – | – | – | – | – | –
Brc1cccc(C2ON=C(c3ccccc3)N2C23CC4CC(CC(C4)C2)C3)c1 (centres undefined) | > 10 µM | > 10 µM | > 10 µM | > 10 µM | > 10 µM | > 10 µM | > 10 µM | – | – | – | – | – | – | – | – | –
O=C(Cn1c(C(=O)c2ccccc2)nc2ccccc21)c1ccccc1 | > 100 µM | > 100 µM | > 100 µM | > 100 µM | > 100 µM | > 100 µM | > 100 µM | – | – | – | – | – | – | – | – | –
COc1ccccc1C1(c2c(OC)c(=O)c2=O)SCCCS1 | > 100 µM | > 100 µM | > 100 µM | > 100 µM | > 100 µM | > 100 µM | > 100 µM | – | – | – | – | – | – | – | – | –
COC1(CC[C@@H](C)COC2OC(CO)C(O)C(O)C2O)O[C@H]2C[C@H]3[C@@H]4CC=C5C[C@@H](OC6OC(CO)C(O)C(OC7OC(CO)C(O)C(O)C7O)C6OC6OC(C)C(O)C(O)C6O)CC[C@]5(C)[C@H]4CC[C@]3(C)[C@H]2[C@@H]1C (some centres undefined) | 27.5 µM | > 100 µM | 12 µM | 11.2 µM | 26.5 µM | 21.2 µM | > 88.3 µM | – | – | – | – | – | – | – | – | –
C/C(=N\Nc1nc2ccccc2s1)c1cc2ccccc2cn1 | 11.9 µM | 8.04 µM | 17.6 µM | 32.4 µM | 7.56 µM | > 100 µM | > 100 µM | – | – | – | – | – | – | – | – | –
CC1(C)OC2OC(C(COS(=O)(=O)C(F)(F)F)N=[N+]=[N-])C(OC(=O)c3ccccc3)C2O1 (centres undefined) | > 100 µM | > 100 µM | > 100 µM | > 100 µM | > 100 µM | > 100 µM | > 100 µM | – | – | – | – | – | – | – | – | > 100 µM and 26.7 µM
